Here are results for 17 compounds from patent US6362181B1, “Isoquinolones” (Warner-Lambert Company, priority 1996, dated 2002).

What all share (assay): Antibacterial assay, standard microtitration, MIC
Common to all, as to format: cell-based

For one assay, the system named is E. coli MC4100. Conditions: Gram negative; for MIC: Escherichia coli, read-out: Minimum Inhibitory Concentrations, E. coli MC4100. The protocol: (§1) The compounds of the present invention were tested against an assortment of gram negative and gram positive organisms using standard microtitration techniques (Cohen, et al., Antimicrob. Agents Chemother., 1985;28:766; Heifetz, et al. Antimicrob. Agents Chemother., 1974;6:124).

For a further assay, the system named is S. pyogenes C203. The following applies: Gram positive; for MIC: Streptococcus pyogenes, read-out: Minimum Inhibitory Concentrations, S. pyogenes C203. The protocol:
as §1

For another assay, the system named is E. coli B90. The following applies: Gram negative; for MIC: Escherichia coli, read-out: Minimum Inhibitory Concentrations, E. coli B90. The protocol:
as §1

The test system of the next assay is E. coli To1C. The following applies: for MIC: Escherichia coli, TO1C, read-out: Minimum Inhibitory Concentrations, E. coli To1C; for Minimum Inhibitory Concentrations, E. coli To1C: Gram negative. The protocol: as §1
The next assay concerns S. aureus 29213. Conditions: Gram positive; for MIC: Staphylococcus aureus, read-out: Minimum Inhibitory Concentrations, S. aureus 29213. The protocol:
as §1

The next assay relates to B. subtilis RB1. The following applies: Gram positive; for MIC: Bacillus subtilis, read-out: Minimum Inhibitory Concentrations, B. subtilis RB1. The protocol:
as §1

In brackets after ≈: the same amount, converted by molar mass.

As to `Cc1cc2c3c(cccc3c1Br)C(=O)N(O)C2=O` [Example 104, 6-Bromo-5-methyl-2-hydroxy-benzo[de]isoquinoline-1,3-dione], the MIC was greater than 64 µg/mL in the assay with E. coli MC4100; greater than 64 µg/mL in the assay on S. pyogenes C203; 0.25 µg/mL (≈ 0.817 µM) with E. coli B90; 0.25 µg/mL (≈ 0.817 µM) in the assay on E. coli To1C; 4 µg/mL (≈ 13.1 µM) with S. aureus 29213; 0.5 µg/mL (≈ 1.63 µM) in the assay on B. subtilis RB1.

Turning to `CC(=O)OCCOc1cc2c3c(cccc3c1)C(=O)N(O)C2=O` [Example 23, 2-Hydroxy-5-(2-acetoxy-ethoxy)-benzo[de]isoquinoline-1,3-dione], the MIC with E. coli MC4100 was 16 µg/mL (≈ 50.7 µM); in the assay with S. pyogenes C203, greater than 64 µg/mL; in the assay on E. coli B90 it was 2 µg/mL (≈ 6.34 µM); in the assay with E. coli To1C it was 1 µg/mL (≈ 3.17 µM); with S. aureus 29213, greater than 64 µg/mL; with B. subtilis RB1 it was 4 µg/mL (≈ 12.7 µM).

Take `COc1cc2c3c(cccc3c1N1CCCCC1)C(=O)N(O)C2=O` [Example 35, 2-Hydroxy-5-methoxy-6-(piperidin-1-yl)-benzo[de]isoquinoline-1,3-dione]: the MIC with E. coli MC4100 is greater than 64 µg/mL; in the assay with S. pyogenes C203 it was 4 µg/mL (≈ 12.3 µM); in the assay on E. coli B90 it was 64 µg/mL (≈ 196 µM); in the assay with E. coli To1C, 64 µg/mL (≈ 196 µM); with S. aureus 29213, 1 µg/mL (≈ 3.06 µM); with B. subtilis RB1, 2 µg/mL (≈ 6.13 µM).

As for `CCOc1cc2c3c(cccc3c1)C(=O)N(O)C2=O` [Example 14, 5-Ethoxy-2-hydroxy-benzo[de]isoquinoline-1,3-dione], the MIC in the assay on E. coli MC4100 is 2 µg/mL (≈ 7.77 µM); in the assay on S. pyogenes C203 it was greater than 64 µg/mL; in the assay with E. coli B90, 0.25 µg/mL (≈ 0.972 µM); in the assay on E. coli To1C, 0.13 µg/mL (≈ 0.505 µM); in the assay on S. aureus 29213, 8 µg/mL (≈ 31.1 µM); in the assay on B. subtilis RB1 it was 1 µg/mL (≈ 3.89 µM).

For the compound `CC(=O)Nc1cc2c3c(cccc3c1N1CCCC1)C(=O)N(O)C2=O` [Example 64, 5-Acetamido-2-hydroxy-6-(pyrrolidin-1yl)-benzo[de]isoquinoline-1,3-dione], the MIC with E. coli MC4100 is greater than 64 µg/mL; with S. pyogenes C203, greater than 64 µg/mL; with E. coli B90, 32 µg/mL (≈ 94.3 µM); with E. coli To1C it was 16 µg/mL (≈ 47.1 µM); in the assay on S. aureus 29213 it was greater than 64 µg/mL; with B. subtilis RB1 it was 64 µg/mL (≈ 189 µM).

In the case of `NC1CCN(c2c(Cl)cc3c4c(cccc24)C(=O)N(O)C3=O)C1.O=C(O)C(F)(F)F` (centres unmarked) [Example 99], the “Minimum Inhibitory Concentrations, E. coli MC4100” value in the assay with E. coli MC4100 stood at 2.0 µg/mL. In addition, the “Minimum Inhibitory Concentrations, S. pyogenes C203” value in the assay on S. pyogenes C203 was 4.0 µg/mL. In the assay with E. coli B90, the “Minimum Inhibitory Concentrations, E. coli B90” value worked out at 1.0 µg/mL. Besides, in the assay on E. coli To1C, the “Minimum Inhibitory Concentrations, E. coli To1C” value was determined as 0.5 µg/mL. In the assay with S. aureus 29213, the “Minimum Inhibitory Concentrations, S. aureus 29213” value was found to be 8.0 µg/mL. For the same compound, the “Minimum Inhibitory Concentrations, B. subtilis RB1” value with B. subtilis RB1 is 1.0 µg/mL.

For `O=C1c2cccc3c(N4CCCC4)ccc(c23)C(=O)N1O` [Example 18, 2-Hydroxy-6-(pyrrolidin-1-yl)-benzo[de]isoquinoline-1,3-dione], the MIC is greater than 64 µg/mL with E. coli MC4100; 4 µg/mL (≈ 14.2 µM) in the assay on S. pyogenes C203; 4 µg/mL (≈ 14.2 µM) with E. coli B90; 1 µg/mL (≈ 3.54 µM) in the assay on E. coli To1C; 1 µg/mL (≈ 3.54 µM) in the assay with S. aureus 29213; 2 µg/mL (≈ 7.08 µM) in the assay with B. subtilis RB1.

Regarding `O=C1c2cccc3c(N4CCCC4)c(F)cc(c23)C(=O)N1O` [Example 134, 5-Fluoro-2-hydroxy-6-(pyrrolidin-1-yl)-benzo[de]isoquinoline-1,3-dione], the MIC is greater than 64 µg/mL in the assay on E. coli MC4100; 8 µg/mL (≈ 26.6 µM) with S. pyogenes C203; 0.5 µg/mL (≈ 1.67 µM) in the assay on E. coli B90; 0.5 µg/mL (≈ 1.67 µM) in the assay with E. coli To1C; 1 µg/mL (≈ 3.33 µM) in the assay with S. aureus 29213; 1 µg/mL (≈ 3.33 µM) in the assay on B. subtilis RB1.

As to `Cc1cc2c3c(cccc3c1)C(=O)N(O)C2=O` [Example 21, 2-Hydroxy-5-methyl-benzo[de]isoquinoline-1,3-dione], the MIC is 8 µg/mL (≈ 35.2 µM) with E. coli MC4100; 64 µg/mL (≈ 282 µM) in the assay on S. pyogenes C203; 2 µg/mL (≈ 8.8 µM) with E. coli B90; 1 µg/mL (≈ 4.4 µM) in the assay on E. coli To1C; 16 µg/mL (≈ 70.4 µM) in the assay with S. aureus 29213; 4 µg/mL (≈ 17.6 µM) in the assay with B. subtilis RB1.

Consider `O=C1c2cc([N+](=O)[O-])cc3c(N4CCCC4)c([N+](=O)[O-])cc(c23)C(=O)N1O` [Example 111, 2-Hydroxy-5,8-dinitro-6-(pyrrolidin-1-yl)-benzo[de]isoquinoline-1,3-dione], for which the MIC is greater than 64 µg/mL in the assay with E. coli MC4100; greater than 64 µg/mL in the assay on S. pyogenes C203; 2 µg/mL (≈ 5.37 µM) with E. coli B90; 4 µg/mL (≈ 10.7 µM) in the assay on E. coli To1C; 8 µg/mL (≈ 21.5 µM) in the assay on S. aureus 29213; 32 µg/mL (≈ 86 µM) with B. subtilis RB1.

Consider `CC(C)NCC1CCN(c2c(Cl)cc3c4c(cccc24)C(=O)N(O)C3=O)C1.O=C(O)C(F)(F)F` (centres unmarked) [Example 86], for which the “Minimum Inhibitory Concentrations, E. coli MC4100” value in the assay on E. coli MC4100 was found to be 8.0 µg/mL. In the assay with S. pyogenes C203, the “Minimum Inhibitory Concentrations, S. pyogenes C203” value was determined as 4.0 µg/mL. Also, in the assay with E. coli B90, the “Minimum Inhibitory Concentrations, E. coli B90” value came to 0.5 µg/mL. Further, in the assay on E. coli To1C, the “Minimum Inhibitory Concentrations, E. coli To1C” value was 0.5 µg/mL. Moreover, in the assay with S. aureus 29213, the “Minimum Inhibitory Concentrations, S. aureus 29213” value is 4.0 µg/mL. In addition, the “Minimum Inhibitory Concentrations, B. subtilis RB1” value in the assay on B. subtilis RB1 worked out at 2.0 µg/mL.

On to `O=C1c2cccc3c(N4CCCCC4)c(Br)cc(c23)C(=O)N1O` [Example 49, 5-Bromo-2-hydroxy-6-(piperidine-1-yl)-benzo[de]isoquinoline-1,3-dione], for which the MIC in the assay with E. coli MC4100 was found to be 64 µg/mL (≈ 171 µM); in the assay with S. pyogenes C203 it was 64 µg/mL (≈ 171 µM); with E. coli B90 it was 4 µg/mL (≈ 10.7 µM); in the assay with E. coli To1C it was 8 µg/mL (≈ 21.3 µM); with S. aureus 29213, 2 µg/mL (≈ 5.33 µM); in the assay with B. subtilis RB1 it was 1 µg/mL (≈ 2.67 µM).

In the case of `O=C1c2cccc3c4c(cc(c23)C(=O)N1O)OCN(C1CC1)C4` [Example 131], in the assay with E. coli MC4100, the “Minimum Inhibitory Concentrations, E. coli MC4100” value turned out to be 32 µg/mL. In addition, the “Minimum Inhibitory Concentrations, S. pyogenes C203” value with S. pyogenes C203 was greater than 64 µg/mL. Also, the “Minimum Inhibitory Concentrations, E. coli B90” value with E. coli B90 came out at 8.0 µg/mL. Besides, the “Minimum Inhibitory Concentrations, E. coli To1C” value with E. coli To1C came to 8.0 µg/mL. In addition, the “Minimum Inhibitory Concentrations, S. aureus 29213” value in the assay with S. aureus 29213 is greater than 64 µg/mL. Also, the “Minimum Inhibitory Concentrations, B. subtilis RB1” value in the assay with B. subtilis RB1 is 32 µg/mL.

Take `CN(C)CCN1C(=O)c2cccc3cc([N+](=O)[O-])cc(c23)C1=O` [Mitonafide, mitonafide, reference compound]: the MIC was found to be 32 µg/mL (≈ 102 µM) in the assay on E. coli MC4100; 4 µg/mL (≈ 12.8 µM) in the assay with S. pyogenes C203; 8 µg/mL (≈ 25.5 µM) in the assay on E. coli B90; 32 µg/mL (≈ 102 µM) in the assay on S. aureus 29213; 16 µg/mL (≈ 51.1 µM) with B. subtilis RB1.

As to `N#Cc1cc2c3c(cccc3c1N1CCCC1)C(=O)N(O)C2=O` [Example 57, 5-Cyano-2-hydroxy-6-(pyrrolidin-1-yl)-benzo[de]isoquinoline-1,3-dione], the MIC was 32 µg/mL (≈ 104 µM) in the assay on E. coli MC4100; 32 µg/mL (≈ 104 µM) with S. pyogenes C203; 0.5 µg/mL (≈ 1.63 µM) with E. coli B90; 0.5 µg/mL (≈ 1.63 µM) in the assay on E. coli To1C; 4 µg/mL (≈ 13 µM) in the assay with S. aureus 29213; 1 µg/mL (≈ 3.25 µM) in the assay on B. subtilis RB1.

As to `O=C1c2ccc([N+](=O)[O-])c3c([N+](=O)[O-])ccc(c23)C(=O)N1O` [Example 48, 2-Hydroxy-6,7-dinitro-benzo[de]isoquinoline-1,3-dione], the MIC in the assay with E. coli MC4100 was 16 µg/mL (≈ 52.8 µM); in the assay on S. pyogenes C203, 1 µg/mL (≈ 3.3 µM); in the assay on E. coli B90, 4 µg/mL (≈ 13.2 µM); with E. coli To1C, 4 µg/mL (≈ 13.2 µM); with S. aureus 29213 it was 2 µg/mL (≈ 6.6 µM); in the assay with B. subtilis RB1 it was 8 µg/mL (≈ 26.4 µM).

For `O=C1c2cccc3c([N+](=O)[O-])c(Br)cc(c23)C(=O)N1O` [Example 108, 5-Bromo-2-hydroxy-6-nitro-benzo[de]isoquinoline-1,3-dione], the MIC was 8 µg/mL (≈ 23.7 µM) in the assay with E. coli MC4100; 16 µg/mL (≈ 47.5 µM) in the assay on S. pyogenes C203; 0.25 µg/mL (≈ 0.742 µM) in the assay on E. coli B90; 0.5 µg/mL (≈ 1.48 µM) in the assay on E. coli To1C; 4 µg/mL (≈ 11.9 µM) in the assay on S. aureus 29213; 2 µg/mL (≈ 5.93 µM) in the assay with B. subtilis RB1.
